The results in this text go back to US20110028441A1, “NOVEL PHENYL-SUBSTITUTED PIPERAZINO-DIHYDROTHIENOPYRIMIDINES” (BOEHRINGER INGELHEIM INTERNATIONAL GMBH, priority 2007, published 2011).

Where two headings read alike, the source gives them in different places.

This assay has as its target PDE4B (Homo sapiens, UniProt Q07343). As to the kind of experiment: Scintillation Proximity (SPA) Assay of PDE4B enzyme inhibition. The format is biochemical. The following applies: read-out: % Inhibition PDE4B @ 1 μM. The method, then: The inhibitions (in %) at 1 μM of the individual Example substances are included in the following Tables of Examples and were determined as follows:
The Scintillation Proximity (SPA) Assays (GE Healthcare, No. TRKQ7090) make use of the different affinities of cyclic 3′-5′-adenosine monophosphate (cAMP, low affinity) and linear 5′-adenosine monophosphate (AMP, high affinity) for yttrium silicate scintillator beads. The cAMP specific phosphodiesterase (PDE) PDE4B cleaves the 3′-phosphoester bond of the tritium-labelled [H3]-cAMP to form the [H3]-5′-AMP. Because of its higher affinity for the scintillator beads this [H3]-AMP accumulates on the beads and causes scintillation events (flashes of light) which are measured in a Wallac Microbeta Scintillation Counter.
The test starts with one hours incubation of [H3]-cAMP with the PDE4B enzyme in assay buffer at 30° C., once with the Example substance that is to be tested (in a concentration of 1 μM) and once without the Example substance that is to be tested. After this incubation the reaction is stopped by the addition of the beads. The beads are given an opportunity to settle over the next 45 minutes, then they are measured in the Scintillation Counter. If the substance is capable of inhibiting the enzymatic activity of the PDE4B, less [H3]-AMP is formed during the incubation phase and fewer scintillation events can be measured.

Where [1] appears, read: test substance 1 μM, one hour incubation of [H3]-cAMP with PDE4B enzyme at 30° C.

PDE4B, sequence (Q07343 whole entry, species assumed): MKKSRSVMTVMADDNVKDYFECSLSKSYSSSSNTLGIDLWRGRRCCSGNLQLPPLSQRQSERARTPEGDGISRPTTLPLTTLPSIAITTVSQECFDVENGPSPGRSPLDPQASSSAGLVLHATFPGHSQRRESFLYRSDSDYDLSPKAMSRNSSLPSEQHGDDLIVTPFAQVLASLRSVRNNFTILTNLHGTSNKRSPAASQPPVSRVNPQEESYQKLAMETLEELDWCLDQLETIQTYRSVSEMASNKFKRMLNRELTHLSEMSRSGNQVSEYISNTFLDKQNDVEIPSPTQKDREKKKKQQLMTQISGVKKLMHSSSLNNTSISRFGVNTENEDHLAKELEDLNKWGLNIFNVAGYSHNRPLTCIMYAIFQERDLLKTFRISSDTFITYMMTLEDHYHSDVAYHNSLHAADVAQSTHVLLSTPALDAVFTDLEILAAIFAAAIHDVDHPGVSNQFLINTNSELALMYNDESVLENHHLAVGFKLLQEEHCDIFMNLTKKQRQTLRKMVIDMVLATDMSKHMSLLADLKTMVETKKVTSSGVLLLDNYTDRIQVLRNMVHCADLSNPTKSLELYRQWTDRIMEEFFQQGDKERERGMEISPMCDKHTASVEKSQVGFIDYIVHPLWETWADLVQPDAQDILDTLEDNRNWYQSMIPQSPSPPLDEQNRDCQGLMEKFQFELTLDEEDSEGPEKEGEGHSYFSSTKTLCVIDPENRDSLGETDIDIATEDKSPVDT

As to `CC(C)[C@H](CO)Nc1nc(N2CCN(c3ccccc3C#N)CC2)nc2c1[S+]([O-])CC2` (stereo partly drawn) [Example 2, 2-{4-[4-((R)-1-hydroxymethyl-2-methylpropylamino)-5-oxo-6,7-dihydro-5H-5λ^4-thieno[3,2-d]pyrimidin-2-yl]piperazin-1-yl}-benzonitrile], the inhibition at 1 µM under setting [1] was determined as 92%.

Regarding `CC(C)[C@H](CO)Nc1nc(N2CCN(c3ccccc3Cl)CC2)nc2c1[S+]([O-])CC2` (stereo partly drawn) [Example 4, (R)-2-{2-[4-(2-CHLOROPHENYL)-PIPERAZIN-1-YL]-5-OXO-6,7-DIHYDRO-5H-5λ^4-THIENO[3,2-D]PYRIMIDIN-4-YLAMINO}-3-METHYLBUTAN-1-OL], the inhibition at 1 µM under setting [1] turned out to be 88%.

In the case of `[O-][S+]1CCc2nc(N3CCN(c4ccccc4Cl)CC3)nc(NC3(CO)CC3)c21` (stereo not drawn) [Example 7, (1-{2-[4-(2-chlorophenyl)-piperazin-1-yl]-5-oxo-6,7-dihydro-5H-5λ^4-thieno[3,2-d]pyrimidin-4-ylamino}-cyclopropyl)-methanol], the inhibition at 1 µM under setting [1] is 94%.

In the case of `CN1C[C@@H](Nc2nc(N3CCN(c4ccccc4Cl)CC3)nc3c2[S+]([O-])CC3)CCC1=O` (stereo partly drawn) [Example 14, (S)-5-{2-[4-(2-chlorophenyl)-piperazin-1-yl]-5-oxo-6,7-dihydro-5H-5λ^4-thieno[3,2-d]pyrimidin-4-ylamino}-1-methylpiperidin-2-one], under setting [1], the inhibition at 1 µM was determined as 96%.

For the molecule `[O-][S+]1CCc2nc(N3CCN(c4ccccc4Cl)CC3)nc(NC3CCOCC3)c21` (stereo not drawn) [Example 19, {2-[4-(2-chlorophenyl)-piperazin-1-yl]-5-oxo-6,7-dihydro-5H-5λ^4-thieno[3,2-d]pyrimidin-4-yl}-(tetrahydropyran-4-yl)-amine], the inhibition at 1 µM under setting [1] was found to be 95%.

`COc1ccccc1N1CCN(c2nc3c(c(Nc4cccc(F)c4)n2)[S+]([O-])CC3)CC1` (stereo not drawn) [Example 21, (3-FLUOROPHENYL)-{2-[4-(2-METHOXYPHENYL)-PIPERAZIN-1-YL]-5-OXO-6,7-DIHYDRO-5H-5λ^4-THIENO[3,2-D]PYRIMIDIN-4-YL}-AMINE]: under setting [1], the inhibition at 1 µM stood at 96%.

For `N#Cc1ccccc1N1CCN(c2nc3c(c(Nc4cccc(F)c4)n2)[S+]([O-])CC3)CC1` (stereo not drawn) [Example 22, 2-{4-[4-(3-FLUOROPHENYLAMINO)-5-OXO-6,7-DIHYDRO-5H-5λ^4-THIENO[3,2-D]PYRIMIDIN-2-YL]-PIPERAZIN-1-YL}-BENZONITRILE], the inhibition at 1 µM under setting [1] came out at 97%.

For `[O-][S+]1CCc2nc(N3CCN(c4ccccc4Cl)CC3)nc(Nc3cccc(F)c3)c21` (stereo not drawn) [Example 24, {2-[4-(2-CHLOROPHENYL)-PIPERAZIN-1-YL]-5-OXO-6,7-DIHYDRO-5H-5λ^4-THIENO[3,2-D]PYRIMIDIN-4-YL}-(3-FLUOROPHENYL)-AMINE], the inhibition at 1 µM under setting [1] was determined as 95%.

Regarding `CC(C)C(CO)Nc1nc(N2CCN(c3cccc(F)c3)CC2)nc2c1[S+]([O-])CC2` [Example 27, (R)-2-{2-[4-(3-FLUOROPHENYL)-PIPERAZIN-1-YL]-5-OXO-6,7-DIHYDRO-5H-5λ^4-THIENO[3,2-D]PYRIMIDIN-4-YLAMINO}-3-METHYLBUTAN-1-OL], the inhibition at 1 µM under setting [1] is 96%.

Turning to `Cc1cccc(N2CCN(c3nc4c(c(NC(CO)C(C)C)n3)[S+]([O-])CC4)CC2)c1` [Example 30, (R)-3-METHYL-2-[5-OXO-2-(4-m-TOLYLPIPERAZIN-1-YL)-6,7-DIHYDRO-5H-5λ^4-THIENO[3,2-D]PYRIMIDIN-4-YLAMINO]-BUTAN-1-OL], the inhibition at 1 µM under setting [1] is 94%.

As to `[O-][S+]1CCc2nc(N3CCN(c4cccc(F)c4)CC3)nc(NC3(CO)CC3)c21` (stereo not drawn) [Example 32, (1-{2-[4-(3-FLUOROPHENYL)-PIPERAZIN-1-YL]-5-OXO-6,7-DIHYDRO-5H-5λ^4-THIENO[3,2-D]PYRIMIDIN-4-YLAMINO}-CYCLOPROPYL)-METHANOL], under setting [1], the inhibition at 1 µM stood at 97%.

For `CN1C[C@@H](Nc2nc(N3CCN(c4cccc(F)c4)CC3)nc3c2[S+]([O-])CC3)CCC1=O` (stereo partly drawn) [Example 37, (S)-5-{2-[4-(3-FLUOROPHENYL)-PIPERAZIN-1-YL]-5-OXO-6,7-DIHYDRO-5H-5λ^4-THIENO[3,2-D]PYRIMIDIN-4-YLAMINO}-1-METHYLPIPERIDIN-2-ONE], the inhibition at 1 µM was 97%.

`[O-][S+]1CCc2nc(N3CCN(c4cccc(F)c4)CC3)nc(NC3CCOCC3)c21` (stereo not drawn) [Example 42, {2-[4-(3-FLUOROPHENYL)-PIPERAZIN-1-YL]-5-OXO-6,7-DIHYDRO-5H-5λ^4-THIENO[3,2-D]PYRIMIDIN-4-YL}-(TETRAHYDROPYRAN-4-YL)-AMINE]: the inhibition at 1 µM under setting [1] was determined as 96%.

With `[O-][S+]1CCc2nc(N3CCN(c4cccc(F)c4)CC3)nc(Nc3cccc(F)c3)c21` (stereo not drawn) [Example 47, (3-FLUOROPHENYL)-{2-[4-(3-FLUOROPHENYL)-PIPERAZIN-1-YL]-5-OXO-6,7-DIHYDRO-5H-5λ^4-THIENO[3,2-D]PYRIMIDIN-4-YL}-AMINE], the inhibition at 1 µM under setting [1] amounted to 96%.

For `Cc1cccc(N2CCN(c3nc4c(c(Nc5cccc(F)c5)n3)[S+]([O-])CC4)CC2)c1` (stereo not drawn) [Example 50, (3-FLUOROPHENYL)-[5-OXO-2-(4-m-TOLYLPIPERAZIN-1-YL)-6,7-DIHYDRO-5H-5λ^4-THIENO[3,2-D]PYRIMIDIN-4-YL]-AMINE], the inhibition at 1 µM under setting [1] turned out to be 96%.

Take `CC(C)C(CO)Nc1nc(N2CCN(c3ccc(Cl)c(C#N)c3)CC2)nc2c1[S+]([O-])CC2` [Example 53, 2-chloro-5-{4-[4-((R)-1-hydroxymethyl-2-methyl-propylamino)-5-oxo-6,7-dihydro-5H-5λ^4-thieno[3,2-d]pyrimidin-2-yl]-piperazin-1-yl}-benzonitrile]: under setting [1], the inhibition at 1 µM came out at 89%.

As to `Cc1cc(N2CCN(c3nc4c(c(NC(CO)C(C)C)n3)[S+]([O-])CC4)CC2)ccc1Cl` [Example 54, (R)-2-{2-[4-(4-chloro-3-methylphenyl)-piperazin-1-yl]-5-oxo-6,7-dihydro-5H-5λ^4-thieno[3,2-d]pyrimidin-4-ylamino}-3-methylbutan-1-ol], the inhibition at 1 µM under setting [1] came to 63%.

As to `CCC[C@H](CO)Nc1nc(N2CCN(c3ccc(Cl)c(C(F)(F)F)c3)CC2)nc2c1[S+]([O-])CC2` (stereo partly drawn) [Example 56, (R)-2-{2-[4-(4-chloro-3-trifluoromethylphenyl)-piperazin-1-yl]-5-oxo-6,7-dihydro-5H-5λ^4-thieno[3,2-d]pyrimidin-4-ylamino}-pentan-1-ol], under setting [1], the inhibition at 1 µM amounted to 94%.

Regarding `[O-][S+]1CCc2nc(N3CCN(c4ccc(Cl)c(Cl)c4)CC3)nc(NC3(CO)CC3)c21` (stereo not drawn) [Example 57, (1-{2-[4-(3,4-DICHLOROPHENYL)-PIPERAZIN-1-YL]-5-OXO-6,7-DIHYDRO-5H-5λ^4-THIENO[3,2-D]PYRIMIDIN-4-YLAMINO}-CYCLOPROPYL)-METHANOL], the inhibition at 1 µM under setting [1] came to 96%.

In the case of `[O-][S+]1CCc2nc(N3CCN(c4ccc(Cl)c(Cl)c4)CC3)nc(NC3CCOCC3)c21` (stereo not drawn) [Example 58, {2-[4-(3,4-DICHLOROPHENYL)-PIPERAZIN-1-YL]-5-OXO-6,7-DIHYDRO-5H-5λ^4-THIENO[3,2-D]PYRIMIDIN-4-YL}-(TETRAHYDROPYRAN-4-YL)-AMINE], under setting [1], the inhibition at 1 µM is 96%.

In the case of `CN1C[C@@H](Nc2nc(N3CCN(c4ccc(Cl)c(Cl)c4)CC3)nc3c2[S+]([O-])CC3)CCC1=O` (stereo partly drawn) [Example 59, (S)-5-{2-[4-(3,4-DICHLOROPHENYL)-PIPERAZIN-1-YL]-5-OXO-6,7-DIHYDRO-5H-5λ^4-THIENO[3,2-D]PYRIMIDIN-4-YLAMINO}-1-METHYLPIPERIDIN-2-ONE], the inhibition at 1 µM was determined as 96%.

For `CC(C)C(CO)Nc1nc(N2CCN(c3ccc(Cl)c(F)c3)CC2)nc2c1[S+]([O-])CC2` [Example 60, (R)-2-{2-[4-(4-chloro-3-fluorophenyl)-piperazin-1-yl]-5-oxo-6,7-dihydro-5H-5λ^4-thieno[3,2-d]pyrimidin-4-ylamino}-3-methylbutan-1-ol], the inhibition at 1 µM under setting [1] turned out to be 94%.

Take `[O-][S+]1CCc2nc(N3CCN(c4ccc(Cl)c(F)c4)CC3)nc(NC3(CO)CC3)c21` (stereo not drawn) [Example 61, (1-{2-[4-(4-CHLORO-3-FLUOROPHENYL)-PIPERAZIN-1-YL]-5-OXO-6,7-DIHYDRO-5H-5λ^4-THIENO[3,2-D]PYRIMIDIN-4-YLAMINO}-CYCLOPROPYL)-METHANOL]: the inhibition at 1 µM under setting [1] came to 95%.

As to `[O-][S+]1CCc2nc(N3CCN(c4ccc(Cl)c(F)c4)CC3)nc(NC3CCOCC3)c21` (stereo not drawn) [Example 62, {2-[4-(4-CHLORO-3-FLUOROPHENYL)-PIPERAZIN-1-YL]-5-OXO-6,7-DIHYDRO-5H-5λ^4-THIENO[3,2-D]PYRIMIDIN-4-YL}-(TETRAHYDROPYRAN-4-YL)-AMINE], the inhibition at 1 µM under setting [1] was 95%.

`[O-][S+]1CCc2nc(N3CCN(c4ccc(Cl)c(F)c4)CC3)nc(Nc3cccc(F)c3)c21` (stereo not drawn) [Example 63, {2-[4-(4-CHLORO-3-FLUOROPHENYL)-PIPERAZIN-1-YL]-5-OXO-6,7-DIHYDRO-5H-5λ^4-THIENO[3,2-D]PYRIMIDIN-4-YL}-(3-FLUOROPHENYL)-AMINE]: under setting [1], the inhibition at 1 µM is 95%.

Consider `CN1C[C@@H](Nc2nc(N3CCN(c4ccc(Cl)c(F)c4)CC3)nc3c2[S+]([O-])CC3)CCC1=O` (stereo partly drawn) [Example 64, (S)-5-{2-[4-(4-CHLORO-3-FLUOROPHENYL)-PIPERAZIN-1-YL]-5-OXO-6,7-DIHYDRO-5H-5λ^4-THIENO[3,2-D]PYRIMIDIN-4-YLAMINO}-1-METHYLPIPERIDIN-2-ONE], for which the inhibition at 1 µM was found to be 94%.

Turning to `Cc1cc(Cl)ccc1N1CCN(c2nc3c(c(Nc4cccc(F)c4)n2)[S+]([O-])CC3)CC1` (stereo not drawn) [Example 67, {2-[4-(4-CHLORO-2-METHYLPHENYL)-PIPERAZIN-1-YL]-5-OXO-6,7-DIHYDRO-5H-5λ^4-THIENO[3,2-D]PYRIMIDIN-4-YL}-(3-FLUOROPHENYL)-AMINE], the inhibition at 1 µM under setting [1] worked out at 94%.
